The source of these data is patent publication US7795294B2, “Tetrahydro-2H-indazole pyrazole cannabinoid modulators” (Janssen Pharmaceutica N.V., priority 2006, dated 2010).

One assay concerns the target T1, human CB1 receptor (Homo sapiens, UniProt P21554).
T1 construct: expressed in transfected cells; host or cells: SK-N-MC cells, stably transfected with pcDNA3 CB-1 (human); semi-purified membrane pellet
As to the kind of experiment: Binding assay for CB1 agonists or inverse agonists, [3H]-CP-55,940 displacement on membranes of transfected SK-N-MC cells. The settings on record: for inhibition at 0.2 µM: read-out: Cannabinoid CB1 Receptor Binding percent inhibition. The method, then:
(§1) The human CB1 and CB2 receptors were stably expressed in SK-N-MC cells transfected with pcDNA3 CB-1 (human) or pcDNA3 CB-2 (human). The cells were grown in T-180 cell culture flasks under standard cell culture conditions at 37° C. in a 5% CO2 atmosphere. The cells were harvested by trysinization and homogenized in a homogenization buffer (10 mM Tris, 0.2 mM MgCl2, 5 mM KCl, with protease inhibitors aprotinin, leupeptin, pepstatin A and bacitracin) and centrifuged (2000 g). The supernatant was then centrifuged in 2M sucrose (31,300 g) to produce a semi-purified membrane pellet. The pellet was resuspended in homogenization and stored at −80° C.
(§2) On the day of the assay, the pellet was thawed on ice and diluted in assay buffer (50 mM Tris-HCl, 5 mM MgCl2, 2.5 mM EDTA, 0.5 mg/mL fatty acid free bovine serum albumin, pH 7.5). […] The plate was covered and incubated for 90 minutes at 30° C. The contents were then aspirated onto a Packard Unifilter GF/C filter bottom plate prewet with 0.5% polyethyleneimine. The wells of the polypropylene plate were rinsed and aspirated seven times with a 0.9% saline-0.5% Tween 20 solution. The Unifilter plate was dried, a scintillation cocktail was added to each well and the counts representing binding were quantitated in a TopCount scintillation counter.
(§3) For compounds tested, an IC50 binding value was obtained from percent inhibition studies in which various test concentrations were used. The binding value was calculated by linear regression. An average value is shown for those compounds where two or more IC50 values were obtained.
(§4) An average value is shown for those compounds where two or more percent inhibition values were obtained.

The target in the next assay is T2, human CB2 receptor (Homo sapiens, UniProt P34972).
T2 construct: expressed in transfected cells; host or cells: SK-N-MC cells, stably transfected with pcDNA3 CB-2 (human); semi-purified membrane pellet
T2 sequence (P34972 whole entry): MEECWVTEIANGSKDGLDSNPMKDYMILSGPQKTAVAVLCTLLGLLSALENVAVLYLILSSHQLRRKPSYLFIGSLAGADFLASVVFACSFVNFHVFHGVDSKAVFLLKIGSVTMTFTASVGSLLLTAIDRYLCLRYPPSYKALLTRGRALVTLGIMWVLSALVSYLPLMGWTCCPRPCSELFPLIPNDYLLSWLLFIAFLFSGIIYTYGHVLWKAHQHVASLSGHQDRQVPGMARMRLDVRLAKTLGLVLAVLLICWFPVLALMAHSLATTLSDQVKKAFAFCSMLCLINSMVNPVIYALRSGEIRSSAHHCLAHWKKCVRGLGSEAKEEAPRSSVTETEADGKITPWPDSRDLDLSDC
As to the kind of experiment: Binding assay for CB2 agonists or inverse agonists, [3H]-CP-55,940 displacement on membranes of transfected SK-N-MC cells. The settings on record: read-out: Cannabinoid CB2 Receptor Binding percent inhibition. The method, then: as §1, §2, §3, §4

T1 sequence (P21554 whole entry): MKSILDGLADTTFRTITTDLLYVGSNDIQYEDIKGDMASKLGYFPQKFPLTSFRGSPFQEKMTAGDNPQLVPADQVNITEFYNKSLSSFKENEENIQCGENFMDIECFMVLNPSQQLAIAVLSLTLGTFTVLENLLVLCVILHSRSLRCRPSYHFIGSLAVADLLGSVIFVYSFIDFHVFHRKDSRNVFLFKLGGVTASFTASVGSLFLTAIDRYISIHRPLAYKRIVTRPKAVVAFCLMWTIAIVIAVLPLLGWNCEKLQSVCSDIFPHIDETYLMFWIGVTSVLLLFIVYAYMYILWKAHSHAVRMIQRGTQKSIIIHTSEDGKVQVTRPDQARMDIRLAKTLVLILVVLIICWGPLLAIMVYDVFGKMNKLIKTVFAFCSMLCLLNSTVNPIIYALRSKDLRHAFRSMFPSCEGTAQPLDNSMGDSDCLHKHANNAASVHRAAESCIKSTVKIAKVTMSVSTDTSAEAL

In general, inhibition refers to the percentage by which the read-out fell short of the control. Consider `COc1ccc(-c2c3c(nn2-c2ccc(Cl)cc2Cl)C(C(=O)NN2CC4CCCC4C2)CCC3)cc1` (centres unmarked) [Cpd 28, 2-(2,4-dichloro-phenyl)-3-(4-methoxy-phenyl)-4,5,6,7-tetrahydro-2H-indazole-7-carboxylic acid (hexahydro-cyclopenta[c]pyrrol-2-yl)-amide], for which the inhibition at 0.2 µM at human CB1 receptor came to 59%; on human CB2 receptor, 23%.

Usually IC50 stands for the point on the concentration scale where inhibition reaches its midpoint. Low readings indicate greater potency, high ones weaker potency. As to `C[C@@H](NC(=O)C1CCCc2c1nn(-c1ccc(Cl)cc1Cl)c2-c1ccc(Cl)cc1)C1CCCCC1` (stereo partly drawn) [Cpd 29, 3-(4-chloro-phenyl)-2-(2,4-dichloro-phenyl)-4,5,6,7-tetrahydro-2H-indazole-7-carboxylic acid [(1R)-1-cyclohexyl-ethyl]-amide], the IC50 at human CB1 receptor worked out at 1 nM. For the same compound, the inhibition at 0.2 µM at human CB2 receptor amounted to 7%.

For `COC[C@H]1CCCN1NC(=O)C1CCCc2c1nn(-c1ccc(Cl)cc1Cl)c2-c1ccc(OC)cc1` (stereo partly drawn) [Cpd 32, 2-(2,4-dichloro-phenyl)-3-(4-methoxy-phenyl)-4,5,6,7-tetrahydro-2H-indazole-7-carboxylic acid [(2R)-2-methoxymethyl-pyrrolidin-1-yl]-amide], the values for the inhibition at 0.2 µM at human CB1 receptor and on human CB2 receptor were 46% and 6%, respectively.

`O=C(NN1CCCCC1)C1CCCc2c1nn(-c1ccc(Cl)cc1Cl)c2-c1ccc(Cl)cc1` (centres unmarked) [Cpd 33, 3-(4-chloro-phenyl)-2-(2,4-dichloro-phenyl)-4,5,6,7-tetrahydro-2H-indazole-7-carboxylic acid piperidin-1-ylamide]: the half-maximal inhibitory concentration (IC50) on human CB1 receptor stood at 39 nM. Moreover, on human CB2 receptor, the inhibition at 0.2 µM was found to be 0%.

In turn, `O=C(NN1CCCCCC1)C1CCCc2c1nn(-c1ccc(Cl)cc1Cl)c2-c1ccc(Cl)cc1` (centres unmarked) [Cpd 34, 3-(4-chloro-phenyl)-2-(2,4-dichloro-phenyl)-4,5,6,7-tetrahydro-2H-indazole-7-carboxylic acid azepan-1-ylamide] had a half-inhibitory concentration (IC50) on human CB1 receptor of 35 nM. For the same compound, the inhibition at 0.2 µM on human CB2 receptor came out at 0%.

Compound `CN(NC(=O)C1CCCc2c1nn(-c1ccc(Cl)cc1Cl)c2-c1ccc(Cl)cc1)c1ccccc1` (centres unmarked) [Cpd 35, 3-(4-chloro-phenyl)-2-(2,4-dichloro-phenyl)-4,5,6,7-tetrahydro-2H-indazole-7-carboxylic acid N′-methyl-N′-phenyl-hydrazide] displayed a half-inhibitory concentration (IC50) at human CB1 receptor of 2 nM. The inhibition at 0.2 µM on human CB2 receptor was determined as 3%.

For the compound `C[C@@H](NC(=O)C1CCCc2c1nn(-c1ccc(Cl)cc1Cl)c2-c1ccc(F)cc1)C1CCCCC1` (stereo partly drawn) [Cpd 36, 2-(2,4-dichloro-phenyl)-3-(4-fluoro-phenyl)-4,5,6,7-tetrahydro-2H-indazole-7-carboxylic acid [(1R)-1-cyclohexyl-ethyl]-amide], the IC50 at human CB1 receptor worked out at 2 nM. Further, at human CB2 receptor, the inhibition at 0.2 µM was 0%.

As to `C[C@@H](NC(=O)[C@H]1CCCc2c1nn(-c1ccc(Cl)cc1Cl)c2-c1ccc(F)cc1)c1ccccc1` [Cpd 37, (7S)-2-(2,4-dichloro-phenyl)-3-(4-fluoro-phenyl)-4,5,6,7-tetrahydro-2H-indazole-7-carboxylic acid [(1R)-1-phenyl-ethyl]-amide], the inhibition at 0.2 µM was found to be 50% on human CB1 receptor and 4% on human CB2 receptor.

For `C[C@@H](NC(=O)[C@@H]1CCCc2c1nn(-c1ccc(Cl)cc1Cl)c2-c1ccc(F)cc1)c1ccccc1` [Cpd 38, (7R)-2-(2,4-dichloro-phenyl)-3-(4-fluoro-phenyl)-4,5,6,7-tetrahydro-2H-indazole-7-carboxylic acid [(1R)-1-phenyl-ethyl]-amide], the IC50 at human CB1 receptor turned out to be 2 nM. Further, the inhibition at 0.2 µM at human CB2 receptor is 14%.

On to `C[C@@H](NC(=O)[C@H]1CCCc2c1nn(-c1ccc(Cl)cc1Cl)c2-c1ccc(Cl)cc1)c1ccccc1` [Cpd 39, (7S)-3-(4-chloro-phenyl)-2-(2,4-dichloro-phenyl)-4,5,6,7-tetrahydro-2H-indazole-7-carboxylic acid [(1R)-1-phenyl-ethyl]-amide], for which the IC50 on human CB1 receptor came to 22 nM. Moreover, at human CB2 receptor, the inhibition at 0.2 µM stood at 1%.

Take `C[C@@H](NC(=O)[C@@H]1CCCc2c1nn(-c1ccc(Cl)cc1Cl)c2-c1ccc(Cl)cc1)c1ccccc1` [Cpd 40, (7R)-3-(4-chloro-phenyl)-2-(2,4-dichloro-phenyl)-4,5,6,7-tetrahydro-2H-indazole-7-carboxylic acid [(1R)-1-phenyl-ethyl]-amide]: the IC50 on human CB1 receptor amounted to 0.6 nM. In addition, the inhibition at 0.2 µM at human CB2 receptor worked out at 11%.

`O=C(NN1CCCCC1)C1CCCc2c1nn(-c1ccc(Cl)cc1Cl)c2-c1ccc(Br)cc1` (centres unmarked) [Cpd 41, 3-(4-bromo-phenyl)-2-(2,4-dichloro-phenyl)-4,5,6,7-tetrahydro-2H-indazole-7-carboxylic acid piperidin-1-ylamide] registered a concentration for half-maximal inhibition (IC50) at human CB1 receptor of 40 nM. In addition, on human CB2 receptor, the inhibition at 0.2 µM stood at 26%.

`C[C@@H](NC(=O)C1CCCc2c1nn(-c1ccc(Cl)cc1Cl)c2-c1ccc(Br)cc1)C1CCCCC1` (stereo partly drawn) [Cpd 44, 3-(4-bromo-phenyl)-2-(2,4-dichloro-phenyl)-4,5,6,7-tetrahydro-2H-indazole-7-carboxylic acid [(1R)-1-cyclohexyl-ethyl]-amide] registered an IC50 on human CB1 receptor of 2 nM. The inhibition at 0.2 µM at human CB2 receptor worked out at 21%.

`C[C@@H](NC(=O)[C@H]1CCCc2c1nn(-c1ccc(Cl)cc1Cl)c2-c1ccc(Br)cc1)c1ccccc1` [Cpd 45, (7S)-3-(4-bromo-phenyl)-2-(2,4-dichloro-phenyl)-4,5,6,7-tetrahydro-2H-indazole-7-carboxylic acid [(1R)-1-phenyl-ethyl]-amide]: the inhibition at 0.2 µM at human CB1 receptor came to 66%; on human CB2 receptor, 11%.

Compound `C[C@@H](NC(=O)[C@@H]1CCCc2c1nn(-c1ccc(Cl)cc1Cl)c2-c1ccc(Br)cc1)c1ccccc1` [Cpd 46, (7R)-3-(4-bromo-phenyl)-2-(2,4-dichloro-phenyl)-4,5,6,7-tetrahydro-2H-indazole-7-carboxylic acid [(1R)-1-phenyl-ethyl]-amide] came in with an IC50 at human CB1 receptor of 0.8 nM. At human CB2 receptor, the inhibition at 0.2 µM was 28%.

As for `C[C@@H](NC(=O)C1CCCc2c1nn(-c1ccc(Cl)cc1Cl)c2-c1ccc(Cl)s1)C1CCCCC1` (stereo partly drawn) [Cpd 47, 3-(5-chloro-thiophen-2-yl)-2-(2,4-dichloro-phenyl)-4,5,6,7-tetrahydro-2H-indazole-7-carboxylic acid [(1R)-1-cyclohexyl-ethyl]-amide], at human CB1 receptor, the IC50 was determined as 4 nM. The inhibition at 0.2 µM on human CB2 receptor worked out at 5%.

`C[C@@H](NC(=O)[C@H]1CCCc2c1nn(-c1ccc(Cl)cc1Cl)c2-c1ccc(Cl)s1)c1ccccc1` [Cpd 48, (7S)-3-(5-chloro-thiophen-2-yl)-2-(2,4-dichloro-phenyl)-4,5,6,7-tetrahydro-2H-indazole-7-carboxylic acid [(1R)-1-phenyl-ethyl]-amide]: the inhibition at 0.2 µM on human CB1 receptor came to 38%; on human CB2 receptor, 0%.

At human CB1 receptor, `C[C@@H](NC(=O)[C@@H]1CCCc2c1nn(-c1ccc(Cl)cc1Cl)c2-c1ccc(Cl)s1)c1ccccc1` [Cpd 49, (7R)-3-(5-chloro-thiophen-2-yl)-2-(2,4-dichloro-phenyl)-4,5,6,7-tetrahydro-2H-indazole-7-carboxylic acid [(1R)-1-phenyl-ethyl]-amide] showed a concentration for half-maximal inhibition (IC50) of 7 nM. The inhibition at 0.2 µM on human CB2 receptor stood at 14%.

In the case of `O=C(NN1CC2CCCC2C1)C1CCCc2c1nn(-c1ccc(Cl)cc1Cl)c2-c1ccc(Cl)cc1` (centres unmarked) [Cpd 50, 3-(4-chloro-phenyl)-2-(2,4-dichloro-phenyl)-4,5,6,7-tetrahydro-2H-indazole-7-carboxylic acid (hexahydro-cyclopenta[c]pyrrol-2-yl)-amide], the inhibition at 0.2 µM amounted to 39% on human CB1 receptor and 3% on human CB2 receptor.

At human CB1 receptor, `O=C(NN1CCCCC1)[C@@H]1CCCc2c1nn(-c1ccc(Cl)cc1Cl)c2-c1ccc(Br)cc1` [Cpd 51, (7R)-3-(4-bromo-phenyl)-2-(2,4-dichloro-phenyl)-4,5,6,7-tetrahydro-2H-indazole-7-carboxylic acid piperidin-1-ylamide] had an IC50 of 14 nM. In addition, the inhibition at 0.2 µM at human CB2 receptor is 27%.

On to `C[C@@H](NC(=O)[C@H]1CCCc2c1nn(-c1ccc(Cl)cc1Cl)c2-c1ccc(Br)s1)c1ccccc1` [Cpd 52, (7S)-3-(5-bromo-thiophen-2-yl)-2-(2,4-dichloro-phenyl)-4,5,6,7-tetrahydro-2H-indazole-7-carboxylic acid [(1R)-1-phenyl-ethyl]-amide], for which the inhibition at 0.2 µM on human CB1 receptor came to 44%; on human CB2 receptor it was 20%.

Consider `C[C@@H](NC(=O)[C@@H]1CCCc2c1nn(-c1ccc(Cl)cc1Cl)c2-c1ccc(Br)s1)c1ccccc1` [Cpd 53, (7R)-3-(5-bromo-thiophen-2-yl)-2-(2,4-dichloro-phenyl)-4,5,6,7-tetrahydro-2H-indazole-7-carboxylic acid [(1R)-1-phenyl-ethyl]-amide], for which the IC50 at human CB1 receptor was 4 nM. For the same compound, the inhibition at 0.2 µM at human CB2 receptor stood at 36%.
